Data as given in the supplement of paper PMC11451515.

System: SEM cells
Assay: cell viability relative to DMSO control; higher = less cytotoxic
Details: 48 h
Outline: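 Cells were incubated for 48 h at 37°C before CellTiter-Glo One luminescence was read. The cells were NOMO1 or SEM (500 cells/well) or P12-Ichikawa (1000 cells/well) leukemia cells, adapted for at least four passages in each medium and seeded in 1536-well plates (5 μl). Dosing used library compounds in DMSO applied by pin over 11 threefold points, 47 μM to 0.79 nM. Viability is the per-plate percentage of DMSO wells, with cell-free wells as background.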

[1] = HPLM + 10% dialyzed FBS, 0.000781 µM
[2] = HPLM + 10% dialyzed FBS, 0.00234 µM
[3] = HPLM + 10% dialyzed FBS, 0.00702 µM
[4] = HPLM + 10% dialyzed FBS, 0.0211 µM
[5] = HPLM + 10% dialyzed FBS, 0.0632 µM
[6] = HPLM + 10% dialyzed FBS, 0.19 µM
[7] = HPLM + 10% dialyzed FBS, 0.569 µM
[8] = HPLM + 10% dialyzed FBS, 1.71 µM
[9] = HPLM + 10% dialyzed FBS, 5.12 µM
[10] = HPLM + 10% dialyzed FBS, 15.4 µM
[11] = HPLM + 10% dialyzed FBS, 46.1 µM
[12] = RPMI 5 mM glucose + 10% FBS, 0.000781 µM
[13] = RPMI 5 mM glucose + 10% FBS, 0.00234 µM
[14] = RPMI 5 mM glucose + 10% FBS, 0.00702 µM
[15] = RPMI 5 mM glucose + 10% FBS, 0.0211 µM
[16] = RPMI 5 mM glucose + 10% FBS, 0.0632 µM
[17] = RPMI 5 mM glucose + 10% FBS, 0.19 µM
[18] = RPMI 5 mM glucose + 10% FBS, 0.569 µM
[19] = RPMI 5 mM glucose + 10% FBS, 1.71 µM
[20] = RPMI 5 mM glucose + 10% FBS, 5.12 µM
[21] = RPMI 5 mM glucose + 10% FBS, 15.4 µM
[22] = RPMI 5 mM glucose + 10% FBS, 46.1 µM
[23] = RPMI 5 mM glucose + 10% dialyzed FBS, 0.000781 µM
[24] = RPMI 5 mM glucose + 10% dialyzed FBS, 0.00234 µM
[25] = RPMI 5 mM glucose + 10% dialyzed FBS, 0.00702 µM
[26] = RPMI 5 mM glucose + 10% dialyzed FBS, 0.0211 µM
[27] = RPMI 5 mM glucose + 10% dialyzed FBS, 0.0632 µM
[28] = RPMI 5 mM glucose + 10% dialyzed FBS, 0.19 µM
[29] = RPMI 5 mM glucose + 10% dialyzed FBS, 0.569 µM
[30] = RPMI 5 mM glucose + 10% dialyzed FBS, 1.71 µM
[31] = RPMI 5 mM glucose + 10% dialyzed FBS, 5.12 µM
[32] = RPMI 5 mM glucose + 10% dialyzed FBS, 15.4 µM
[33] = RPMI 5 mM glucose + 10% dialyzed FBS, 46.1 µM

SMILES	cell viability [1]	cell viability [2]	cell viability [3]	cell viability [4]	cell viability [5]	cell viability [6]	cell viability [7]	cell viability [8]	cell viability [9]	cell viability [10]	cell viability [11]	cell viability [12]	cell viability [13]	cell viability [14]	cell viability [15]	cell viability [16]	cell viability [17]	cell viability [18]	cell viability [19]	cell viability [20]	cell viability [21]	cell viability [22]	cell viability [23]	cell viability [24]	cell viability [25]	cell viability [26]	cell viability [27]	cell viability [28]	cell viability [29]	cell viability [30]	cell viability [31]	cell viability [32]	cell viability [33]
CCC[S+](=O)([O-])Nc1ccc(F)c(C(=O)c2c[nH]c3ncc(-c4ccc(Cl)cc4)cc23)c1F	115%	123%	122%	115%	119%	124%	134%	123%	131%	115%	104%	105%	126%	120%	99.5%	127%	126%	128%	121%	128%	119%	107%	113%	98.5%	113%	121%	125%	120%	128%	113%	134%	122%	109%
C[C@@H](Oc1ccc2[nH]nc(/C=C/c3cnn(CCO)c3)c2c1)c1c(Cl)cncc1Cl	90.3%	86.4%	85.9%	85.9%	85.6%	58.6%	31.3%	37.2%	20%	14.8%	30.9%	118%	136%	103%	103%	108%	75.5%	32.7%	42.8%	15.6%	13.8%	21%	82.4%	84.6%	82%	73.5%	80%	50.9%	17.5%	33.7%	12.4%	10.9%	20.9%
CCNC(=O)c1noc(-c2cc(C(C)C)c(O)cc2O)c1-c1ccc(CN2CCOCC2)cc1	90.6%	97.5%	92.4%	103%	31.8%	21.1%	20.2%	20.9%	19.6%	17.3%	14.2%	95.2%	102%	102%	102%	27.1%	21.6%	19.8%	19.6%	19.4%	14.1%	7.66%	101%	95.7%	89.5%	99.5%	36.1%	24.9%	26.4%	22.6%	18.6%	19.2%	11.2%
COc1cc2nc(N3CCN(C(=O)c4ccco4)CC3)nc(N)c2cc1OC	54.4%	61.9%	81.8%	86.4%	89.7%	85.8%	73%	91.9%	87%	16.4%	13.6%	76.2%	78.4%	90.6%	80.6%	104%	96.2%	98.4%	101%	105%	13.5%	8.2%	78.2%	88.3%	93.8%	104%	109%	81.2%	91%	91.4%	80.2%	14%	11.9%
COc1cc([C@@H]2c3cc4c(cc3[C@@H](O[C@@H]3O[C@@H]5CO[C@@H](C)O[C@H]5[C@H](O)[C@H]3O)[C@H]3COC(=O)[C@H]23)OCO4)cc(OC)c1O	82.6%	71.6%	81.1%	74.9%	50.7%	52.7%	49.2%	16.1%	8.68%	3.97%	2.91%	99.8%	96.1%	91.8%	70.1%	46.4%	59.6%	45.1%	10.9%	10.3%	3.77%	3.27%	70.3%	76%	76.1%	64.1%	37%	35.8%	34.8%	8.52%	5.58%	3.22%	2.28%
COc1ccccc1N1CCN(CC(O)COc2cccc3ccccc23)CC1 (stereo not drawn)	62.9%	116%	124%	131%	136%	119%	111%	108%	121%	109%	88.8%																						
COC1=CC=CC(=C1/C2=N/CC3=C(N=C(NC4=CC(=C(C=C4)C(O)=O)OC)N=C3)C5=CC=C(Cl)C=C25)F	83.2%	75.2%	93.3%	79.7%	65.7%	26%	25.3%	33.1%	28.9%	25.8%	23.4%	91.7%	84.3%	85.4%	85.4%	68.7%	16.6%	18.1%	16.5%	18.9%	14%	16.4%	75.5%	80.7%	82.2%	88.8%	54%	20.2%	21.1%	24%	23.9%	15.7%	17.8%
CCCC[N+]1(C)[C@@H]2CC(OC(=O)[C@H](CO)c3ccccc3)C[C@H]1[C@@H]1O[C@@H]12 (stereo partly drawn)	112%	113%	120%	125%	118%	126%	110%	127%	109%	131%	123%																						
C=C1C(=O)O[C@@H]2[C@H]3O[C@]3(C)CC/C=C(\C)CC[C@@H]12	96.1%	99.9%	122%	104%	116%	115%	98.5%	40.5%	4.45%	3.12%	4%	81.4%	84.9%	103%	93.9%	87.6%	73%	69.5%	19.9%	2.98%	1.9%	2.67%	104%	97%	102%	114%	106%	105%	95.9%	42.4%	3.46%	1.79%	3.03%
NC/1=N/C(=O)C2=C([NH]C=C2CCC3=CC=C(C=C3)C(=O)N[C@@H](CCC(O)=O)C(O)=O)N1	118%	103%	107%	115%	114%	110%	80.2%	45.7%	39.4%	38.3%	35.8%	98.3%	105%	103%	107%	99.7%	107%	91.9%	100%	83.2%	73.9%	69.8%	98.8%	95%	100%	97.3%	97%	107%	109%	52.2%	36.2%	32.3%	23.3%
O=C(O)C(=O)Nc1cccc(-c2nnn[nH]2)c1	90.2%	98.2%	108%	112%	109%	116%	76.4%	122%	132%	128%	119%	91.3%	112%	114%	104%	106%	106%	75.5%	119%	120%	110%	117%	98.8%	101%	111%	116%	119%	105%	81.5%	119%	132%	107%	102%
CNC(=O)c1ccccc1Sc1ccc2c(/C=C/c3ccccn3)n[nH]c2c1	119%	109%	119%	116%	120%	118%	114%	115%	73.4%	33.5%	30.5%																						
Cc1cccc(Nc2nc(N[C@@H]3CCCC[C@@H]3N)ncc2C(N)=O)c1	109%	107%	112%	104%	107%	118%	114%	88.6%	44%	30.9%	32.3%	66.2%	80.1%	78%	79.7%	69.8%	89.4%	87.1%	74.2%	33.8%	11.5%	14.5%	95.7%	126%	104%	112%	103%	114%	96.2%	81.1%	25.6%	23.3%	25%
CCN(CCO)CCCC(C)Nc1ccnc2cc(Cl)ccc12 (stereo not drawn)	102%	93.8%	114%	76.2%	105%	118%	5.95%	95%	106%	62.6%	49.9%	105%	102%	117%	93%	102%	108%	6.8%	78.2%	104%	64.8%	42.5%	98.4%	80.5%	104%	82.5%	107%	99.6%	5.67%	66%	100%	52.1%	37.2%
CC[C@@H](C)[C@H](NC(=O)[C@H](CC1CCCCC1)NC(=O)c1ccno1)C(=O)N1CCC2(CCc3ccccc32)CC1	41.9%	88.3%	78.3%	86%	65.4%	86.3%	83.7%	87.1%	93.1%	82.6%	70.3%	49.4%	102%	103%	89.2%	67.5%	71.5%	88%	73.7%	79.3%	73.8%	81.3%	55.4%	111%	99.2%	105%	83.6%	99.1%	82.1%	99.1%	95.6%	93.9%	91.9%
COC1=CC2=C(C=C1CC3=C(F)C(=CC=C3)Cl)C(=O)\C(=C/N2[C@H](CO)C(C)C)C(O)=O	120%	120%	119%	26.7%	115%	133%	113%	106%	117%	93.7%	23.7%																						
OCCN1CCN(CCCN2c3ccccc3Sc3ccc(C(F)(F)F)cc32)CC1	85.3%	90%	80.6%	34.4%	104%	110%	7.1%	37.4%	88.7%	49.5%	47.8%	74.8%	89.4%	85.7%	36%	96.2%	122%	7.38%	21.4%	102%	47.6%	34.1%	76.3%	87.2%	86.3%	74.5%	84%	115%	13.7%	31.1%	92.3%	46.3%	35.9%
